Patent US20170296573A1, “ANTITUMOR DRUG COMPRISING BETA-CYCLODEXTRIN” (JRC G. K., priority 2014, published 2017)

Tests used:
AKT = test: Example 2 Method A: AKT phosphorylation in RCC4 cells stimulated with IGF1, serum free; type: cell-based; settings: 10 mM 2DG 2 hours, 10 mM bCD (MBCD), 0-30 ng/ml IGF1 5 minutes
Description: We ran 20 μg of proteins per lane for western blots. We ran 8, 10, 12.5 and 15% gels depending on the size of proteins being detected by western blots. When there are two proteins having a similar size, gel is flowed in each protein to make western blot analysis about each protein. The immunoprecipitation was undergone by adding 200 μg of protein from solubilized cells and Protein G Sepharose or Protein A Sepharose (Sigma P3296/P9242) pre-conjugated with immunoprecipitation antibody to a buffer for immunoprecipitation, and slowly rotating the tube containing the sample buffer at 4° C. overnight. The buffer for immunoprecipitation comprises 20 mM Tris Ph 7.5, 1% Triton-X100, 150 mM NaCl, phosphatase inhibitor cocktail (Cell Signaling (#58709S)), and 10% glycerol. Next morning, the content in the tube was centrifuged. The precipitate was washed with the same buffer twice and dissolved in SDS buffer. The precipitate in the solution was separated with 15% SDS-PAGE or 12.5% SDS-PAGE and analyzed by Western blotting.
The bCD used herein was MBCD.
RCC4 cells were incubated in serum free media for 2 hours with or without 10 mM 2DG. In the last hour, 10 mM bCD was added to each one subset of the cells treated/untreated with 2DG. Then 0-30 ng/ml IGF1 was added and the incubation continued for 5 minutes before the cells were harvested and analyzed by Western blotting.

Bak-Bcl-xL complex = Bak-Bcl-xL complex (Homo sapiens, UniProt Q07817); test: Example 7: immunoprecipitation of Bak-bound proteins in RCC4 cells, Bcl-xL; type: cell-based; settings: RCC4 cells pre-treated with 2DG and bCD, 3 μM ABT
Bak-Bcl-xL complex, sequence (Q07817 whole entry, one chain of several): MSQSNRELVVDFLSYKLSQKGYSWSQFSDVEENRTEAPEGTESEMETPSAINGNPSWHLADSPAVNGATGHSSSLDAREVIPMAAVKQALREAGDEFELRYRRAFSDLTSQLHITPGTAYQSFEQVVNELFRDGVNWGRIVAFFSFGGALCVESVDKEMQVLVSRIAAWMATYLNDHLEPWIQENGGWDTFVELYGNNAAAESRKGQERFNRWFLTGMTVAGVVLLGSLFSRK
Description: (§1) We ran 20 μg of proteins per lane for western blots. We ran 8, 10, 12.5 and 15% gels depending on the size of proteins being detected by western blots. When there are two proteins having a similar size, gel is flowed in each protein to make western blot analysis about each protein. The immunoprecipitation was undergone by adding 200 μg of protein from solubilized cells and Protein G Sepharose or Protein A Sepharose (Sigma P3296/P9242) pre-conjugated with immunoprecipitation antibody to a buffer for immunoprecipitation, and slowly rotating the tube containing the sample buffer at 4° C. overnight. The buffer for immunoprecipitation comprises 20 mM Tris Ph 7.5, 1% Triton-X100, 150 mM NaCl, phosphatase inhibitor cocktail (Cell Signaling (#58709S)), and 10% glycerol. […] The precipitate in the solution was separated with 15% SDS-PAGE or 12.5% SDS-PAGE and analyzed by Western blotting.
(§2) (A and B) RCC4 cells were treated with 2DG, bCD, 2DG +bCD, or left untreated as done in Example 6. Approximately 20 μg of the whole cell lysates (WCL) were analyzed by western blotting. Bak- and Bcl-xL-bound proteins were immune-precipitated from approximately 200 μg of cell lysates and analyzed by western blotting. (C) 3 μM ABT with or without the 20 μM pan-caspase inhibitor z-VAD was added to the cells pre-treated with the combination of 2DG and bCD over 2 hours, and analyzed by Western blotting for caspase 9. […]

caspase 9 = test: Example 7: caspase 9 cleavage in RCC4 cells, Western blot; type: cell-based
Description: as §1, §2

cytochrome c = test: Example 7: cytochrome c release assay in RCC4 cells; type: cell-based; settings: RCC4 cells pre-treated with 2DG-bCD
Description: RCC4 cells grown and treated on glass cover slips were first fixed with 3.7% formaldehyde in PBS for 10 minutes. Then the cover slips were briefly exposed to 100% methanol kept in a −20° C. freezer. Cover slips were incubated with 10% serum in PBS before being stained with mouse anti-cytochrome c antibody overnight. Next morning, the cover slips were washed and blocked with 10% serum in PBS for 30 minutes. Then they were exposed to secondary anti-mouse antibody conjugated with AF488 for 30 minutes. They were washed again and exposed to propidium iodide (1 μg/mL in PBS) for 15 minutes to stain DNA in the nucleus before being washed and mounted on the glass slides. We used a Keyence BZ9000 microscope with a 100× objective lens for observation. […] (E) RCC4 cells treated with 2DG-bCD (left panel), RCC4 cells treated with 2DG-bCD-ABT (middle panel), and RCC4 cells treated with 2DG-bCD-ABT in the presence of 20 μM pan-caspase inhibitor z-VAD (right panel) were immunostained using anti-cytochrome c antibody and GFP-conjugated anti-mouse antibody. Nuclei were stained red with propidium iodide.

[1] = mice, injected, four hours later; cited from earlier work
UOK121 cells = test: Example 10 Test B: cyclodextrin with 2DG-ABT in UOK121 cells, live cells by trypan-blue dye exclusion; type: cell-based, human; settings: 10 mM 2DG, 10 mM cyclodextrin, 0.3 μM ABT-263, 25 mM glucose
Description: Dead and live cells were counted by trypan-blue dye exclusion methods. These experiments were done in triplicate, and the error bars indicate the standard deviation.
(Test A) UOK121 cells were incubated in 10% serum medium with 5 mM or 10 mM α-, β-, and γ-cyclodextrins for 45 minutes. The same medium without any cyclodextrin was also incubated as a control. The cells were harvested and analyzed by Western Blots for the phosphorylation of AKT and ERK1/2 as an indicator of the AKT and ERK1/2 activations. (Test B) 10 mM 2DG was added to a medium of U0K121 cells in the presence of 25 mM glucose, and the medium was incubated for 1.5 hours. To the medium was added 10 mM α-, β-, or γ-cyclodextrin, and the medium was incubated for 30 minutes. Then, 0.3 μM ABT-263 was added thereto, and the medium was further incubated for 2 hours. Separately, a control that includes only α-, β-, or γ-cyclodextrin without 2DG or ABT-263, and another control that includes neither α-, β-, or γ-cyclodextrin, nor 2DG or ABT-263 were prepared. 2.5 hours after adding each cyclodextrin (i.e., 2 hours after adding ABT-263), all the cells were washed with the medium twice, and next day the live cells were counted by trypan-blue dye exclusion assay.

O=CC[C@@H](O)[C@H](O)[C@H](O)CO [2DG, 2-deoxyglucose]
AKT phosphorylation (AKT): increasing the phosphorylation of AKT

CC1(C)CCC(c2ccc(Cl)cc2)=C(CN2CCN(c3ccc(C(=O)NS(=O)(=O)c4ccc(N[C@H](CCN5CCOCC5)CSc5ccccc5)c(S(=O)(=O)C(F)(F)F)c4)cc3)CC2)C1 [ABT, ABT-263]
Bak-Bcl-xL complex (Bak-Bcl-xL complex): caused the dissociation | caspase 9 activation (caspase 9; RCC4 cells pre-treated with 2DG and bCD, 3 μM ABT): activated | time to full caspase 9 activation (caspase 9; after ABT addition, RCC4 cells pre-treated with 2DG-bCD): ≤ 2 h | release of cytochrome c from mitochondria (cytochrome c; with or without 20 μM z-VAD): took place only after the addition of ABT | time to full release of cytochrome c (cytochrome c; after ABT addition): ≤ 2 h

CC(O)COC[C@H]1O[C@@H]2O[C@H]3[C@H](O)[C@@H](O)[C@@H](O[C@H]4[C@H](O)[C@@H](O)[C@@H](O[C@H]5[C@H](O)[C@@H](O)[C@@H](O[C@H]6[C@H](O)[C@@H](O)[C@@H](O[C@H]7[C@H](O)[C@@H](O)[C@@H](O[C@H]8[C@H](O)[C@@H](O)[C@@H](O[C@H]1[C@H](O)[C@H]2O)O[C@@H]8COCC(C)O)O[C@@H]7COCC(C)O)O[C@@H]6COCC(C)O)O[C@@H]5COCC(C)O)O[C@@H]4COCC(C)O)O[C@@H]3COCC(C)O (stereo partly drawn) [HPBCD, (2-hydroxypropyl)-β-cyclodextrin]
amount that remains in circulation [1]: about 50%

OC[C@H]1O[C@@H]2O[C@H]3[C@H](O)[C@@H](O)[C@@H](O[C@H]4[C@H](O)[C@@H](O)[C@@H](O[C@H]5[C@H](O)[C@@H](O)[C@@H](O[C@H]6[C@H](O)[C@@H](O)[C@@H](O[C@H]7[C@H](O)[C@@H](O)[C@@H](O[C@H]1[C@H](O)[C@H]2O)O[C@@H]7CO)O[C@@H]6CO)O[C@@H]5CO)O[C@@H]4CO)O[C@@H]3CO [α-cyclodextrin]
enhancement of the combination effect of 2DG-ABT (live cells) (UOK121 cells): little enhanced
